Results from ChEMBL document CHEMBL3399993, “Design and synthesis of novel quinoline-aminopiperidine hybrid analogues as Mycobacterium tuberculosis DNA gyraseB inhibitors” (Bioorg Med Chem, 2015).
≈ marks a conversion by molar mass, not a printed value.

tested on: Mycobacterium tuberculosis; test: Antimycobacterial activity against extensively drug resistant Mycobacterium tuberculosis; format: functional

Structure (SMILES) | MIC [µM]
Cc1cc(N2CCC(NC(=O)Nc3ccc(F)cc3)CC2)c2cc(F)ccc2n1 | 3.82 (≈ 1.51 µg/mL)
COc1ccc2nc(C)cc(N3CCC(NC(=S)Nc4ccccc4)CC3)c2c1 | 7.62 (≈ 3.1 µg/mL)
COc1ccc2nc(C)cc(N3CCC(NC(=S)Nc4ccc(Cl)cc4)CC3)c2c1 | 6.94 (≈ 3.06 µg/mL)
COc1ccc2nc(C)cc(N3CCC(NC(=S)Nc4ccc([N+](=O)[O-])cc4)CC3)c2c1 | 1.72 (≈ 0.777 µg/mL)
